Earlier results, collected in PMC4278936 (Journal of computer-aided molecular design, 2014).

Biological target: T1, PfENR (Plasmodium falciparum, UniProt Q9BH77)
T1 sequence (Q9BH77 22-432): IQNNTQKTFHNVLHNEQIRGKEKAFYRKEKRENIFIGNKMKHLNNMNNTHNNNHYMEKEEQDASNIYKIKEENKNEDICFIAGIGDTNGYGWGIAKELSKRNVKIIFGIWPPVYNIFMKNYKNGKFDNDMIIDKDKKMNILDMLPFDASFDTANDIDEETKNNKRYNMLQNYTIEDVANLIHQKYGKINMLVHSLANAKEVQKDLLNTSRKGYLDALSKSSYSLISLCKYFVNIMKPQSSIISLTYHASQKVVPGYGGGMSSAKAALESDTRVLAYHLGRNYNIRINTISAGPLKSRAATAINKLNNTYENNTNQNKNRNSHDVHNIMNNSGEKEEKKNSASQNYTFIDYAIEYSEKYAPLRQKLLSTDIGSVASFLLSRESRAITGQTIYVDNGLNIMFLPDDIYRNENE
Details: ref [32], [60]

## Oc1cc(Cl)ccc1Oc1ccc(Cl)cc1Cl [compound 1, Triclosan]
  Concentration range in which TCL inhibits PfENR: picomolar to nanomolar range
